From patent US10723733B2, “Hepatitis B antiviral agents” (Enanta Pharmaceuticals, Inc., priority 2017, dated 2020)

Tested on: HBV
Assay: HepAD38 antiviral assay: reduction of viral product accumulation (virion DNA by qPCR, HBsAg/HBeAg by ELISA)
Type: cell-based
Conditions: Hepatitis B virus, 120 h, HepAD38 cells, 50% reduction of viral product accumulation vs no drug controls, five days after compound addition
Description: Methods: HepAD38 cells are maintained as previously reported (Ladner et al, Antimicrob. Agents Chemother. 1997, […], 1715). Briefly, cells are passaged upon attaining confluency in DMEM/F12 media in the presence of 10% FBS, Penn/Strep, 250 μg/mL G418, and 1 μg/ml tetracycline. Novel compounds are screened by first washing cells three times with PBS to remove tetracycline, and plating in 96 well plates at 35,000 cells/well. Compounds dissolved in DMSO are then diluted 1:200 into wells containing cells. Five days after compound addition, material is harvested for analysis. For an extended 8 day analysis, cells are plated and treated as described above, but media and compound are refreshed on d2 and d5 post initial treatment.
On harvest day, virion DNA is obtained by lysing with Sidestep Lysis and Stabilization Buffer and then quantified via quantitative real time PCR. Commercially available ELISA kits are used to quantitate the viral proteins HBsAg (Alpco) or HbeAg (US Biological) by following the manufacturer's recommended protocol after diluting samples to match the linear range of their respective assays. Irrespective of readout, compound concentrations that reduce viral product accumulation in the cell lysates or supernatants by 50% relative to no drug controls (EC50) are reported; EC50 ranges are as follows: A<0.1 μM; B 0.1-1 μM; C>1 μM.

Compound: CC(=O)NC[C@@]1(O)CC2=C(c3ccn(C(F)F)n3)[C@H](c3ccc(F)cc3Cl)N=C(c3nccs3)N2C1 [Example 116]
- EC50 (given as numeric bound): > 400 nM

Compound: O=C[C@]1(CC2=C(c3ccn(C(F)F)n3)[C@H](c3ccc(F)cc3Cl)N=C(c3nccs3)N2)COC(=O)N1 [Example 95]
- EC50 (class symbols): < 100 nM

Compound: C[C@H]1OC[C@](F)(CC2=C(c3cnn(C(F)F)c3)[C@H](c3ccc(F)cc3Cl)N=C(c3nccs3)N2)CO1 [Example 139]
- EC50 (given as numeric bound): > 400 nM

Compound: COC(=O)N[C@H]1CC2=C(c3cnn(C(F)F)c3)[C@H](c3ccc(F)cc3Cl)N=C(c3nccs3)N2C1 [Example 14]
- EC50 (class symbols): < 100 nM

Compound: CC(C)(C)OC(=O)NC[C@H]1CCC(=O)N1CC1=C(c2ccn(C(F)F)n2)[C@H](c2ccc(F)cc2Cl)N=C(c2nccs2)N1 [Example 130]
- EC50 (given as numeric bound): > 400 nM

Compound: COC(=O)N[C@]1(C(=O)NCCC(=O)OC(C)(C)C)CC2=C(c3ccn(C(F)F)n3)[C@H](c3ccc(F)cc3Cl)N=C(c3nccs3)N2C1 [Example 80]
- EC50 (given as numeric bound): > 400 nM

Compound: CC(C)(C)OC(=O)NC[C@@H]1CN(CC2=C(c3ccn(C(F)F)n3)[C@H](c3ccc(F)cc3Cl)N=C(c3nccs3)N2)C(=O)O1 [Example 127]
- EC50 (given as numeric bound): > 400 nM

Compound: CS(=O)(=O)NCC1CC2=C(c3cnn(C(F)F)c3)[C@H](c3ccc(F)cc3Cl)N=C(c3nccs3)N2C1 (stereo partly drawn) [Example 30]
- EC50 (given as numeric bound): > 100 nM

Compound: OC[C@]1(F)CC2=C(c3cnn(C(F)F)c3)[C@H](c3ccc(F)cc3Cl)N=C(c3nccs3)N2C1 [Example 148]
- EC50 (class symbols): 100 to 1000 nM

Compound: CC(C)(O)[C@]1(CC2=C(c3ccn(C(F)F)n3)[C@H](c3ccc(F)cc3Cl)N=C(c3nccs3)N2)COC(=O)N1 [Example 109]
- EC50 (given as numeric bound): > 400 nM

Compound: CCC[C@H]1OC[C@@](F)(CC2=C(c3cnn(C(F)F)c3)[C@H](c3ccc(F)cc3Cl)N=C(c3nccs3)N2)CO1 [Example 142]
- EC50 (given as numeric bound): > 400 nM

Compound: CCS(=O)(=O)N[C@H]1CC2=C(c3cnn(C(F)F)c3)[C@H](c3ccc(F)cc3Cl)N=C(c3nccs3)N2C1 [Example 21]
- EC50 (class symbols): < 100 nM

Compound: CC(=O)NCC1CC2=C(c3cnn(C(F)F)c3)[C@H](c3ccc(F)cc3Cl)N=C(c3nccs3)N2C1 (stereo partly drawn) [Example 29]
- EC50 (given as numeric bound): > 100 nM

Compound: [N-]=[N+]=N[C@@]1(CO)CC2=C(c3cnn(C(F)F)c3)[C@H](c3ccc(F)cc3Cl)N=C(c3nccs3)N2C1 [Example 48]
- EC50 (given as numeric bound): > 400 nM

Compound: CC(C)(C)OC(=O)NC[C@H]1CN(CC2=C(c3ccn(C(F)F)n3)[C@H](c3ccc(F)cc3Cl)N=C(c3nccs3)N2)C(=O)O1 [Example 124]
- EC50 (given as numeric bound): > 400 nM

Compound: COC(=O)N[C@]1(C(=O)NCCC(=O)O)CC2=C(c3ccn(C(F)F)n3)[C@H](c3ccc(F)cc3Cl)N=C(c3nccs3)N2C1 [Example 81]
- EC50 (given as numeric bound): > 400 nM

Compound: COC(=O)[C@]1(O)CC2=C(c3ccn(C(F)F)n3)[C@H](c3ccc(F)cc3Cl)N=C(c3nccs3)N2C1 [Example 121]
- EC50 (given as numeric bound): > 400 nM

Compound: CS(=O)(=O)NC(=O)N[C@H]1CC2=C(c3cnn(C(F)F)c3)[C@H](c3ccc(F)cc3Cl)N=C(c3nccs3)N2C1 [Example 15]
- EC50 (given as numeric bound): > 100 nM

Compound: CC1(CNS(C)(=O)=O)CC2=C(c3cnn(C(F)F)c3)[C@H](c3ccc(F)cc3Cl)N=C(c3nccs3)N2C1 (stereo partly drawn) [Example 38]
- EC50 (given as numeric bound): > 400 nM

Compound: CN(C)C(=O)NCC1(C)CC2=C(c3cnn(C(F)F)c3)[C@H](c3ccc(F)cc3Cl)N=C(c3nccs3)N2C1 (stereo partly drawn) [Example 42]
- EC50 (given as numeric bound): > 400 nM

Compound: COC(=O)N[C@]1(C(C)O)CC2=C(c3ccn(C(F)F)n3)[C@H](c3ccc(F)cc3Cl)N=C(c3nccs3)N2C1 (stereo partly drawn) [Example 119]
- EC50 (given as numeric bound): > 400 nM

Compound: COC(=O)OC[C@@]1(N=[N+]=[N-])CC2=C(c3cnn(C(F)F)c3)[C@H](c3ccc(F)cc3Cl)N=C(c3nccs3)N2C1 [Example 55]
- EC50 (class symbols): < 100 nM

Compound: O=C[C@@]1(CC2=C(c3ccn(C(F)F)n3)[C@H](c3ccc(F)cc3Cl)N=C(c3nccs3)N2)COC(=O)N1 [Example 91]
- EC50 (class symbols): < 100 nM

Compound: COC(=O)CCNC(=O)OC[C@@]1(NC(=O)OC)CC2=C(c3ccn(C(F)F)n3)[C@H](c3ccc(F)cc3Cl)N=C(c3nccs3)N2C1 [Example 78]
- EC50 (given as numeric bound): > 400 nM

Compound: [N-]=[N+]=NC[C@@]1(O)CC2=C(c3ccn(C(F)F)n3)[C@H](c3ccc(F)cc3Cl)N=C(c3nccs3)N2C1 [Example 113]
- EC50 (class symbols): 100 to 1000 nM

Compound: COC(=O)N[C@]1(COC(=O)NCC(=O)O)CC2=C(c3ccn(C(F)F)n3)[C@H](c3ccc(F)cc3Cl)N=C(c3nccs3)N2C1 [Example 77]
- EC50 (given as numeric bound): > 400 nM

Compound: O=C(O)CC[C@]1(CC2=C(c3ccn(C(F)F)n3)[C@H](c3ccc(F)cc3Cl)N=C(c3nccs3)N2)COC(=O)N1 [Example 107]
- EC50 (given as numeric bound): > 400 nM

Compound: CC(C)(C)OC(=O)NC[C@@H]1CCC(=O)N1CC1=C(c2ccn(C(F)F)n2)[C@H](c2ccc(F)cc2Cl)N=C(c2nccs2)N1 [Example 131]
- EC50 (given as numeric bound): > 400 nM

Compound: OCC(F)(CO)CC1=C(c2cnn(C(F)F)c2)[C@H](c2ccc(F)cc2Cl)N=C(c2nccs2)N1 [Example 137]
- EC50 (class symbols): 100 to 1000 nM

Compound: COC(=O)N[C@@]1(C(C)O)CC2=C(c3ccn(C(F)F)n3)[C@H](c3ccc(F)cc3Cl)N=C(c3nccs3)N2C1 (stereo partly drawn) [Example 87]
- EC50 (given as numeric bound): > 400 nM

Compound: CNC(=O)OC[C@@]1(NC(=O)OC)CC2=C(c3ccn(C(F)F)n3)[C@H](c3ccc(F)cc3Cl)N=C(c3nccs3)N2C1 [Example 71]
- EC50 (given as numeric bound): > 400 nM

Compound: COC(=O)NC[C@H]1CCC(=O)N1CC1=C(c2ccn(C(F)F)n2)[C@H](c2ccc(F)cc2Cl)N=C(c2nccs2)N1 [Example 132]
- EC50 (given as numeric bound): > 400 nM

Compound: COC(=O)/C=C/[C@]1(CC2=C(c3ccn(C(F)F)n3)[C@H](c3ccc(F)cc3Cl)N=C(c3nccs3)N2)COC(=O)N1 [Example 105]
- EC50 (given as numeric bound): > 400 nM

Compound: O=C1N[C@@](CC2=C(c3ccn(C(F)F)n3)[C@H](c3ccc(F)cc3Cl)N=C(c3nccs3)N2)(C(=O)O)CO1 [Example 104]
- EC50 (given as numeric bound): > 400 nM

Compound: COC(=O)N[C@]1(COC(C)=O)CC2=C(c3ccn(C(F)F)n3)[C@H](c3ccc(F)cc3Cl)N=C(c3nccs3)N2C1 [Example 83]
- EC50 (given as numeric bound): > 400 nM

Compound: CCCS(=O)(=O)N[C@H]1CC2=C(c3cnn(C(F)F)c3)[C@H](c3ccc(F)cc3Cl)N=C(c3nccs3)N2C1 [Example 22]
- EC50 (class symbols): < 100 nM

Compound: CC(=O)[C@]1(CC2=C(c3ccn(C(F)F)n3)[C@H](c3ccc(F)cc3Cl)N=C(c3nccs3)N2)COC(=O)N1 [Example 108]
- EC50 (given as numeric bound): > 400 nM

Compound: O=S(=O)(N[C@]1(CO)CC2=C(c3ccn(C(F)F)n3)[C@H](c3ccc(F)cc3Cl)N=C(c3nccs3)N2C1)C1CC1 [Example 70]
- EC50 (class symbols): 100 to 1000 nM

Compound: OCC1CC2=C(c3cnn(C(F)F)c3)[C@H](c3ccc(F)cc3Cl)N=C(c3nccs3)N2C1 (stereo partly drawn) [Example 27]
- EC50 (given as numeric bound): > 100 nM

Compound: O=C(N[C@H]1CC2=C(c3cnn(C(F)F)c3)[C@H](c3ccc(F)cc3Cl)N=C(c3nccs3)N2C1)NS(=O)(=O)C1CC1 [Example 16]
- EC50 (given as numeric bound): > 100 nM

Compound: O=S(=O)(NCC1CC2=C(c3cnn(C(F)F)c3)[C@H](c3ccc(F)cc3Cl)N=C(c3nccs3)N2C1)C1CC1 (stereo partly drawn) [Example 33]
- EC50 (given as numeric bound): > 100 nM

Compound: Fc1ccc([C@@H]2N=C(c3nccs3)N3C[C@@H](OCc4ccccc4)CC3=C2c2cnn(C(F)F)c2)c(Cl)c1 [Example 25]
- EC50 (given as numeric bound): > 200 nM

Compound: COC[C@@]1(NC(=O)OC)CC2=C(c3ccn(C(F)F)n3)[C@H](c3ccc(F)cc3Cl)N=C(c3nccs3)N2C1 [Example 85]
- EC50 (given as numeric bound): > 400 nM

Compound: COC(=O)OC[C@]1(CC2=C(c3ccn(C(F)F)n3)[C@H](c3ccc(F)cc3Cl)N=C(c3nccs3)N2)COC(=O)N1 [Example 96]
- EC50 (class symbols): 100 to 1000 nM

Compound: CS(=O)(=O)NC[C@@]1(O)CC2=C(c3ccn(C(F)F)n3)[C@H](c3ccc(F)cc3Cl)N=C(c3nccs3)N2C1 [Example 115]
- EC50 (given as numeric bound): > 400 nM

Compound: COC(=O)[C@@]1(O)CC2=C(c3ccn(C(F)F)n3)[C@H](c3ccc(F)cc3Cl)N=C(c3nccs3)N2C1 [Example 120]
- EC50 (given as numeric bound): > 400 nM

Compound: COC(=O)[C@](N)(CO)CC1=C(c2ccn(C(F)F)n2)[C@H](c2ccc(F)cc2Cl)N=C(c2nccs2)N1 [Example 62]
- EC50 (given as numeric bound): > 400 nM

Compound: COC(=O)[C@@]1(NS(=O)(=O)C2CC2)CC2=C(c3ccn(C(F)F)n3)[C@H](c3ccc(F)cc3Cl)N=C(c3nccs3)N2C1 [Example 68]
- EC50 (given as numeric bound): > 400 nM

Compound: CC(=O)OC[C@]1(CC2=C(c3ccn(C(F)F)n3)[C@H](c3ccc(F)cc3Cl)N=C(c3nccs3)N2)COC(=O)N1 [Example 97]
- EC50 (class symbols): 100 to 1000 nM

Compound: CCCCS(=O)(=O)N[C@H]1CC2=C(c3cnn(C(F)F)c3)[C@H](c3ccc(F)cc3Cl)N=C(c3nccs3)N2C1 [Example 23]
- EC50 (class symbols): < 100 nM

Compound: COC(=O)NC[C@@H]1CN(CC2=C(c3ccn(C(F)F)n3)[C@H](c3ccc(F)cc3Cl)N=C(c3nccs3)N2)C(=O)O1 [Example 128]
- EC50 (given as numeric bound): > 400 nM

Compound: Fc1ccc([C@@H]2N=C(c3nccs3)NC(C[C@]3(F)CO[C@@H](c4ccccc4)OC3)=C2c2cnn(C(F)F)c2)c(Cl)c1 [Example 143]
- EC50 (given as numeric bound): > 400 nM

Compound: OC[C@@]1(F)CC2=C(c3cnn(C(F)F)c3)[C@H](c3ccc(F)cc3Cl)N=C(c3nccs3)N2C1 [Example 149]
- EC50 (class symbols): 100 to 1000 nM

Compound: C=CCOCC(F)(COC)CC1=C(c2cnn(C(F)F)c2)[C@H](c2ccc(F)cc2Cl)N=C(c2nccs2)N1 (stereo partly drawn) [Example 136]
- EC50 (given as numeric bound): > 400 nM

Compound: O=C1N[C@](CO)(CC2=C(c3ccn(C(F)F)n3)[C@H](c3ccc(F)cc3Cl)N=C(c3nccs3)N2)CO1 [Example 90]
- EC50 (given as numeric bound): > 400 nM

Compound: O=S(=O)(N[C@H]1CC2=C(c3cc[nH]n3)[C@H](c3ccc(F)cc3Cl)N=C(c3nccs3)N2C1)C1CC1 [Example 4]
- EC50 (given as numeric bound): > 100 nM

Compound: O=S(=O)(N[C@H]1CC2=C(c3cnn(C(F)F)c3)[C@H](c3ccc(F)cc3Cl)N=C(c3nccs3)N2C1)N1CCCC1 [Example 19]
- EC50 (class symbols): < 100 nM
